In patent EP2497475A1, “Treatment of laminitis with platelet aggregation inhibitors” (priority 2011, dated 2012):
Read-outs that look alike come from different tables or passages of the source.

Test system: laminitis
Assay type: in vivo, horse

CC(=O)Oc1cc2c(s1)CCN(C(C(=O)C1CC1)c1ccccc1F)C2 (stereo not drawn) [Prasugrel]
Therapy progress (Example 1: 8 year old Shetty-gelding, acute attack, initial 20 mg Prasugrel + 1000 mg acetylsalicylic acid per 60 kg, then 10 mg + 500 mg per 60 kg twice a day, change in feeding, day 2): distinct pulsation in all 4 legs; the horse is more interested in its surrounding | Therapy progress (Example 1: Shetty-gelding, Prasugrel in combination with acetylsalicylic acid, day 3): pulsation in the front legs less, in the back legs the same; horse comes when it is called | 1. Follow-up examination (Example 1: Shetty-gelding, Prasugrel in combination with acetylsalicylic acid, day 4): day 4: pulsation in all 4 legs; horse walks with medium grade turning pain. | 2. Follow-up examination: signs of laminitis (Example 1: Shetty-gelding, Prasugrel in combination with acetylsalicylic acid, day 6): no signs of laminitis | 2. Follow-up examination: hoof ulcers (Example 1: Shetty-gelding, Prasugrel in combination with acetylsalicylic acid, day 8): no hoof ulcers observable | 2. Follow-up examination: recurrence of laminitis (Example 1: Shetty-gelding, after stop of treatment on day 10, change of feeding kept): no more laminitis occurred | Therapy progress (Example 2: 8 year old Shetty-mare, per 60 kg 10 mg Prasugrel + 500 mg acetylsalicylic acid twice a day, change in feeding, from day 3 on): light amelioration | Therapy progress: pulsation (Example 2: Shetty-mare, Prasugrel in combination with acetylsalicylic acid, from day 7 on): no pulsation anymore sensible | Therapy progress: pulsation (Example 2: Shetty-mare, Prasugrel in combination with acetylsalicylic acid, until day 5): pulsation clearly sensible | Follow-up examination (Example 2: Shetty-mare, 1 month later (treatment stopped on day 14)): no pulsation; attitude without pathological findings | Therapy progress (Example 3: 12 year old Pony-gelding, 10 mg Prasugrel + 500 mg acetylsalicylic acid per 60 kg twice a day, change in feeding, from day 2 on): light amelioration | Therapy progress: movement (Example 3: Pony-gelding, Prasugrel in combination with acetylsalicylic acid, day 6): pony walks still restrained | Therapy progress: movement (Example 3: Pony-gelding, Prasugrel in combination with acetylsalicylic acid, day 10): unlimited movement | Therapy progress: pulsation (Example 3: Pony-gelding, Prasugrel in combination with acetylsalicylic acid, from day 4 on): no pulsation anymore sensible | Therapy progress (Example 4: 8 year old Shetty-gelding, acute attack, 10 mg Prasugrel + 500 mg acetylsalicylic acid per 60 kg twice a day, change in feeding, day 3): pony standing in bran, but still heavy pain on all 4 legs | Therapy progress (Example 4: Shetty-gelding, Prasugrel in combination with acetylsalicylic acid, day 5): clear amelioration of its attitude; less pulsation | Therapy progress: pulsation (Example 4: Shetty-gelding, Prasugrel in combination with acetylsalicylic acid, from day 10 on): no pulsation sensible anymore | Follow-up examination: outcome of pregnancy (in vivo): normal birth of a healthy foal
